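Following 48 hours of exposure in 96-well plates, responses at five concentrations were used to interpolate endpoints linearly. TGI marks complete inhibition of growth.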 Where a SMILES comes first, the peptide text is derived from it. [ ]: non-standard residue; d: D form. The star is where a group is joined. ξ: configuration not given here. dThr(3ξ) = CC(O)[C@@H](N)C(=O)O; dNMeL = CN[C@H](CC(C)C)C(=O)O; OBn = c1ccc(CO*)cc1; ξLac = CC(O)C(=O)O

Drawing on PubChem BioAssay (NCI), this text covers TGI for 7 compounds.

Common to all, as to assay: NCI anticancer screen, dose series, 48 h
Assay [1] relates to SF-539 CNS.
For assay [2], the system named is OVCAR-8 ovarian.
Assay [3] concerns UACC-257 melanoma.
The test system of assay [4] is K-562 leukemia.
Assay [5] relates to UACC-62 melanoma.
In assay [6] the test system is PC-3 prostate.
In assay [7] the test system is DU-145 prostate.
In assay [8] the test system is CAKI-1 renal.
The subject of assay [9] is KM12 colon.
Assay [10] deals with 786-0 renal.
Assay [11] concerns OVCAR-3 ovarian.
Assay [12] relates to RPMI-8226 leukemia.
Assay [13] deals with CCRF-CEM leukemia.
Assay [14] deals with MALME-3M melanoma.
Assay [15] has as its system OVCAR-4 ovarian.
The subject of assay [16] is HCT-116 colon.
The subject of assay [17] is SK-MEL-28 melanoma.
The subject of assay [18] is HCT-15 colon.
The test system of assay [19] is RXF 393 renal.

As for `O=C1c2ccccc2-c2nc3ccc(O)cc3n21`, the TGI in assay [1], in assay [2], in assay [3], in assay [4], in [5] and in [6] was greater than 100 µM each time. Besides, the TGI in assay [7], in assay [8], in [9], in assay [10], in assay [11] and in [12] was greater than 100 µM throughout. In addition, the TGI in assay [13], in assay [14], in assay [15], in [16], in [17] and in assay [18] was greater than 100 µM in each case. In assay [19], this compound registered a TGI greater than 100 µM.

Consider `c1ccc(C2C3=C(CCCC3)Nc3nc4cc5ccccc5cc4n32)cc1` (stereo not drawn), for which the TGI in assay [1], in assay [2], in assay [3], in [4], in [5] and in assay [6] was greater than 100 µM in each case. In addition, the TGI in assay [7], in assay [8], in assay [9], in [10], in [11] and in [12] was greater than 100 µM each time. The TGI in assay [13], in [14], in assay [15], in [16], in assay [17] and in [18] was greater than 100 µM in each case. Further, the TGI in assay [19] was greater than 100 µM.

With `CC(=O)CCNc1ccc(-c2cc(-c3ccc(N(C)C)cc3)nc3ccc4ccccc4c23)cc1`, the TGI in [1], in assay [2], in [3], in assay [4], in assay [5] and in assay [6] was greater than 100 µM throughout. Besides, the TGI in assay [7], in assay [8], in [9], in assay [10], in assay [11] and in assay [12] was greater than 100 µM each time. For the same compound, the TGI in assay [13], in assay [14], in [15], in assay [16], in [17] and in [18] was greater than 100 µM in each case. The compound also showed a TGI in assay [19] greater than 100 µM.

On to `CN(c1ccccc1)S(=O)(=O)c1ccccc1[N+](=O)[O-]`, for which the TGI in assay [1], in [2], in [3], in assay [4], in assay [5] and in assay [6] was greater than 100 µM in each case. Also, the TGI in [7], in assay [8], in [9], in [10], in [11] and in assay [12] was greater than 100 µM throughout. Besides, the TGI in assay [13], in [14], in assay [15], in [16], in assay [17] and in [18] was greater than 100 µM throughout. The compound further came in with a TGI in assay [19] greater than 100 µM.

Regarding `CC1=NN(C(=O)CC(=O)Nc2ccccc2Cl)C(=O)C1N=Nc1ccc(C(=O)O)cc1` (stereo not drawn), the TGI in assay [1], in assay [2], in assay [3], in [4], in assay [5] and in assay [6] was greater than 100 µM in each case. In addition, the TGI in [7], in assay [8], in assay [9], in assay [10], in [11] and in assay [12] was greater than 100 µM throughout. Further, the TGI in assay [13], in assay [14], in assay [15], in [16], in assay [17] and in [18] was greater than 100 µM in each case. The same compound came in with a TGI in [19] greater than 100 µM.

Consider `CC(=O)OC(C)[C@@H](NC(=O)[C@@H](CC(C)C)N(C)C(=O)[C@@H]1CCCN1C(=O)C(C)O)C(=O)OCc1ccccc1` (stereo partly drawn) (H-[ξLac]P[dNMeL][dThr(3ξ)](Ac)-OBn), for which the TGI in assay [1], in assay [2], in [3], in assay [4], in assay [5] and in assay [6] was greater than 100 µM each time. Also, the TGI in [7], in [8], in assay [9], in assay [10], in assay [11] and in [12] was greater than 100 µM each time. Also, the TGI in [13], in assay [14], in assay [15], in assay [16], in assay [17] and in [18] was greater than 100 µM in each case. Moreover, the TGI in assay [19] is greater than 100 µM.

For `O=CN1CCN(C(=O)c2cc(Cl)cc(Cl)c2)C1=S`, the TGI in [1] stood at 39.7 µM; in [2], 33.6 µM; in assay [3], 32.3 µM; in assay [4], 97.5 µM; in [5] it was 31.2 µM; in assay [6], 35.8 µM. Further, the TGI in assay [7] turned out to be 37.5 µM; in assay [8], 26 µM; in assay [9], 29.8 µM; in assay [10], 15.7 µM; in assay [11], 27.9 µM; in assay [12], 5.64 µM. The TGI is 25.5 µM in assay [13]; 20.7 µM in assay [14]; 33.4 µM in assay [15]; 32.7 µM in assay [16]; 39.2 µM in assay [17]; 35.2 µM in assay [18]. The same compound showed a TGI in assay [19] of 30.6 µM.
